Results from US8765713B2, “Method for determination of sensitivity to anti-cancer agent” (Keio University, priority 2009, dated 2014).

What was measured:
HCT116 cells [1] = assay: MTS assay cell viability after drug exposure, HCT116
Experimental: (§2) Two human colorectal cancer cell lines (HCT116 and DLD-1) were obtained from ECACC. Cell culturing was performed by means of a φ000 mm/Tissue Culture Dish (IWAKI) with a medium (D-MEM, 2 mM glutamine, 10% fetal bovine serum) at 37° C. under 5% CO2.
(§3) Two colorectal cancer cell lines (HCT116 and DLD-1) were exposed to a drug, and 24 hours and 48 hours after drug exposure, cell viability was determined by means of an MTS assay (CellTiter96™AQueous One Solution Cell Proliferation Assay, Promega). Drug exposure conditions were as follows. 5-FU (single agent) was used at the following 11 concentrations: control (0 μM), 0.001 μM, 0.01 μM, 0.1 μM, 1 μM, 3 μM, 10 μM, 30 μM, 100 μM, 1,000 μM, and 10,000 μM. L-OHP (single agent) was used at the following 11 concentrations; control (0 μM), 0.001 μM, 0.01 μM, 0.1 μM, 0.3 μM, 1 μM, 3 μM, 10 μM, 30 μM, 100 μM, and 1,000 μM. […]
(§4) Sensitivity analysis was performed from viability data calculated from MTS assay results. The presence or absence of combined effect was determined through comparison of viability obtained by exposure to a combination with that obtained by exposure to a single agent at the same concentration as employed at the exposure to the combination.

DLD-1 cells [2] = assay: MTS assay cell viability after drug exposure, DLD-1
Experimental: as §2, §3, §4

HCT116 cells [3] = assay: Intracellular protein level after drug exposure by SELDI-TOF MS, HCT116; format: cell-based, human; conditions: 4 to 48 hours
Experimental: (§1) Based on the results of (c) above, the drug concentration employed in the exposure test was determined. The 5-FU+L-OHP combination concentration was adjusted to the following four levels: 2 μ[…], and 100 μM+10 μM, the 5-FU concentration (exposure to single agent) was adjusted to 2 μM and 100 μM, and the L-OHP concentration (exposure to single agent) was adjusted to 1 μM and 10 μM. In addition, the exposure test was conducted at a drug-free concentration (control). That is, nine concentrations in total were employed. Drug exposure time was adjusted to the following five periods of time: 0 hour (just before exposure), 4 hours, 12 hours, 24 hours, and 48 hours. After completion of exposure, cell count was performed, and intracellular proteins were extracted. The medium was removed from the dish and washed thrice with ice-cooled PBS. The cells on the dish was collected by scraping with a rubber policeman. The thus-obtained cell suspension was transferred to a 1.5-mL microtube. The cell suspension was centrifuged at 4° C. and 1,200×g for 10 minutes, and the cells were recovered. After removal of the supernatant, a cell lysis buffer (9 mol/L urea, 2% CHAPS, 1 mM DTT, protease-inhibitor cocktail (Sigma)) was added in a volume of 200 μL with respect to 10,000,000 cells. The liquid was subjected to untrasonic treatment under cooling with ice. The thus-treated product was centrifuged at 4° C. and 16,000×g for 20 minutes, and the supernatant was quickly frozen with liquid nitrogen. The frozen product was stored at -80° C. before analysis. An aliquot of the supernatant was subjected to protein quantification (DC Protein Assay Kit, Bio-Rad). The protein sample was mixed with a cell lysis buffer (excluding protease inhibitor), to thereby adjust the protein concentration to 2.5 mg/mL. The liquid was further mixed with a dilution/washing buffer (pH: 4.5, 50 mM sodium acetate buffer) (hereinafter referred to simply as “buffer”), to a protein concentration of 0.5 mg/mL. The thus-prepared sample (100 μL) was applied to spots of a cation-exchange ProteinChip array (CM10, Bio-Rad) which had been conditioned in advance with the same buffer. Incubation was performed for one hour for reaction, and the chip array was washed thrice with the buffer and rinsed twice with milliQ water, followed by drying in air. Energy absorbing molecule (EAM: saturated solution of sinapinic acid in 50% ACN/0.5% TFA) (1.0 μL ([…])) was added to each spot. After the surface of the spot was dried, analysis of the ProteinChip array was performed. […] As an analyzer, ProteinChipTM Reader (Model PCS4000 Personal Edition, Bio-Rad) was used and the analysis was performed under the following conditions: mass range of 0 to 70,000 Da, focus mass of 8,000 Da, energy of 3,000 or 4,000 nJ, and 265 shots/sample. […]

DLD-1 cells [4] = assay: Intracellular protein level after drug exposure by SELDI-TOF MS, DLD-1; format: cell-based, human; conditions: DLD-1, SELDI-TOF MS, 4 to 48 hours
Experimental: as §1

Row | Structure (SMILES) | viability at 100 µM (HCT116 cells [1]; Homo sapiens, HCT-116, 48 h, read-out: cell viability) | viability at 100 µM (DLD-1 cells [2]; Homo sapiens, DLD-1, 48 h, read-out: cell viability) | levels of proteins A to C, F, and H to K after exposure (HCT116 cells [3]) | levels of proteins D and M after exposure (HCT116 cells [3]) | levels of proteins A to C, F, and H to K after exposure (DLD-1 cells [4]) | levels of proteins D and M after exposure (DLD-1 cells [4]) | cell viability (HCT116 cells [1]; HCT116, 1 μM L-OHP, 48 hours) | cell viability (DLD-1 cells [2]; DLD-1, 1 μM L-OHP, 48 hours) | levels of proteins A to C and G to K after exposure (HCT116 cells [3]) | levels of proteins A to C and G to K after exposure (DLD-1 cells [4])
1 | O=c1[nH]cc(F)c(=O)[nH]1 [5-FU, Fluorouracil] | ~24% | ~49% | no significant difference | decrease | increase | no significant difference |  |  |  | 
2 | O=C1[O][Pt]2([NH][C@@H]3CCCC[C@H]3[NH]2)[O]C1=O [L-OHP, (SP-4-2)-[(1R,2R)-cyclohexane-1,2-diamine-κN,κN′][ethanedioato(2-)-κO^1,κO^2]platinum] |  |  |  | decrease |  | no significant difference | about 37% | about 82% | no significant difference | increase
